The record followed here is ChEMBL document CHEMBL2311270, “Additional acetyl cholinesterase inhibitory property of diaryl pyrazoline derivatives” (Bioorg Med Chem Lett, 2013).

Assay [1] deals with Cholinesterase (Equus caballus) (UniProt P81908). The assay can be described thus: Inhibition of equine serum BChE using butyrylthiocholine iodide as substrate up to 100 nM after 60 mins by Ellman's method. (In Ellman's method for cholinesterases, released thiocholine reacts with DTNB.)
The target in the next assay is Acetylcholinesterase (Homo sapiens, UniProt P22303).
Acetylcholinesterase, sequence (P22303 whole entry): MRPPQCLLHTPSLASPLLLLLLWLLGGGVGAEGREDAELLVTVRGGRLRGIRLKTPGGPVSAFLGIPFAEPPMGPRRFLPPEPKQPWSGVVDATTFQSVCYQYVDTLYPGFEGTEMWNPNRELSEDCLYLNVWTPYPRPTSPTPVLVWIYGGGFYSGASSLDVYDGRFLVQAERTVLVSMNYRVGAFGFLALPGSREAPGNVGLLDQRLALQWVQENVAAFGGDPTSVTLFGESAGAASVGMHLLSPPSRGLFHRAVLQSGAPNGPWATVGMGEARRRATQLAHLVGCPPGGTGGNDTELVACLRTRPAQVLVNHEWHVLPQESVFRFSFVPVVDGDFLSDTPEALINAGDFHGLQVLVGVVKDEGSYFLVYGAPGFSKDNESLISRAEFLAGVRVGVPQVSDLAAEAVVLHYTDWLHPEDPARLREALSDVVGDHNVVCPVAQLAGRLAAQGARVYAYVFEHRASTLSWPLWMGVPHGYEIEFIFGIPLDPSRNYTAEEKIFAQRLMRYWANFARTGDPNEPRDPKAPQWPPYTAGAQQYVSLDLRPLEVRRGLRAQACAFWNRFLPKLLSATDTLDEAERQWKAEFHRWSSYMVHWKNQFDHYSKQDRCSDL

Active and inactive are the calls of the source. The calls are words filed in the database; no cut-off is given here.

Cholinesterase (Equus caballus), sequence (P81908 whole entry): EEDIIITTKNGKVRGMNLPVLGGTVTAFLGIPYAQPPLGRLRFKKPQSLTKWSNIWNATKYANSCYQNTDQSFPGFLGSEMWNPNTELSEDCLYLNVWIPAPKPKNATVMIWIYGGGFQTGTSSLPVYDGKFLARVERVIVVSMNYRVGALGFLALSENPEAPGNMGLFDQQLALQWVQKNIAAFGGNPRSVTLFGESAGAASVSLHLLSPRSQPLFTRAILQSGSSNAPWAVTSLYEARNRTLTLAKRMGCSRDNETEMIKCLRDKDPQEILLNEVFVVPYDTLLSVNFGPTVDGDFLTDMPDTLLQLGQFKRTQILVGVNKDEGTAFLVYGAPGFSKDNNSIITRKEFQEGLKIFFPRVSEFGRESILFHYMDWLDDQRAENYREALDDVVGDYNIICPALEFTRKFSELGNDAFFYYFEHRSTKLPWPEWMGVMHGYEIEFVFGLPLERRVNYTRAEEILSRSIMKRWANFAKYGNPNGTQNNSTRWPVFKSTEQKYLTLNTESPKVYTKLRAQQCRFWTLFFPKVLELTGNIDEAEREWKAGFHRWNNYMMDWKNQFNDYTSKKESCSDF
Description for Acetylcholinesterase: Inhibition of human erythrocyte AChE using acetylthiocholine iodide as substrate after 60 mins by Ellman's method

With `Oc1ccccc1[C@@H]1CC(c2c3ccccc3cc3ccccc23)=NN1`, the inhibition entry in assay [1] was “inactive”. For the same molecule, affinity on Acetylcholinesterase was put at a Ki of 24.4 nM.

Turning to `c1ccc([C@@H]2CC(c3c4ccccc4cc4ccccc34)=NN2)cc1`, in assay [1], the inhibition result is “inactive”. For the same molecule, the Ki (commonly the equilibrium dissociation constant of an inhibitor or competing ligand from its target) on Acetylcholinesterase is 30.2 nM.

Turning to `O=[N+]([O-])c1ccc([C@@H]2CC(c3c4ccccc4cc4ccccc34)=NN2)cc1`, at Acetylcholinesterase, the inhibitory constant (Ki) was greater than 100 nM.

On to `Oc1ccc([C@@H]2CC(c3c4ccccc4cc4ccccc34)=NN2)cc1`, for which the Ki at Acetylcholinesterase is greater than 100 nM.

In the case of `COc1ccc([C@@H]2CC(c3c4ccccc4cc4ccccc34)=NN2)cc1`, in assay [1], the inhibition entry is “inactive”. In addition, the affinity at Acetylcholinesterase, expressed as Ki, was 25.4 nM.

Turning to `O=[N+]([O-])c1cccc([C@@H]2CC(c3c4ccccc4cc4ccccc34)=NN2)c1`, the inhibition result in assay [1] is “inactive”. Besides, the Ki on Acetylcholinesterase was 20.6 nM.

Consider `c1ccc([C@@H]2CC(c3c4ccccc4cc4ccccc34)=NN2)nc1`, for which the inhibition result in assay [1] is “inactive”. Further, the Ki on Acetylcholinesterase came out at 41.3 nM.

Turning to `Clc1ccc([C@@H]2CC(c3c4ccccc4cc4ccccc34)=NN2)cc1`, the inhibition entry in assay [1] was “inactive”.

For `Oc1ccc([C@@H]2CC(c3c4ccccc4cc4ccccc34)=NN2)c(O)c1`, the inhibition entry in assay [1] is “inactive”. On Acetylcholinesterase, this molecule returned a Ki of 7.2 nM.

The molecule `Cc1ccc([C@@H]2CC(c3c4ccccc4cc4ccccc34)=NN2)cc1` displayed an inhibitory constant (Ki) on Acetylcholinesterase greater than 100 nM.
